Test results published in US20260207504A1, “STABILIZATION OF LIPID NANOPARTICLE FORMULATIONS” (Eli Lilly and Company, priority 2022, published 2026).

Test: Lipid chemical stability in PBS or histidine buffer solution (LC-MS)
Assay type: physicochemical
Conditions: for primary degradation pathway: LC-MS; for stability in BT5933 glass vials relative to COP vials: diluted with PBS buffer
Method: Stock MC3 lipidic solutions were prepared by dissolving MC3 in an ethanolic solution to a final concentration of 4 mg/mL (e.g., 6 mM). Similarly, stock lipidic DOTAP solutions were prepared by dissolving DOTAP in an ethanolic solution to a final concentration of 4 mg/mL. Stock solutions of phosphate buffered saline (1×, pH 7.4) were used. Final lipidic solutions were prepared by mixing PBS stock to the lipidic stock in a ratio of 3:1 (e.g., PBS stock:DOTAP stock in ethanol=3:1; PBS stock:MC3 stock in ethanol=3:1). Solutions were stored in either glass (BT5933) or polymer (COP) vials.
Dilute lipidic solutions were frozen at −70° C. before being thawed and stored at either 5° C., 25° C., or 40° C. for either 1 week, 2 weeks, or 4 weeks. At each timepoint, (e.g., after 1 week, 2 weeks, or 4 weeks) the lipid solution was analyzed via LC-MS to determine the extent of hydrolysis and/or oxidation present.
MC3 and DOTAP lipids were prepared using either PBS or Histidine buffers. Ethanolic stock solutions of MC3 and DOTAP were prepared as described in Example 1. PBS-based solutions were prepared by diluting the stock lipid solutions, respectively, by 3:1 (PBS:lipid in ethanol (vol/vol)) using 1× PBS, pH 7.4. Histidine-based solutions were also prepared by diluting the stock lipidic solution by 3:1 (histidine:lipid in ethanol vol/vol) using a histidine buffer (10 mM, pH 6.0). Solutions were filled into BT5933, COP, or Valor glass vials at 1 mL aliquots and put on stability. Initial control samples were immediately frozen at −70° C.
Filled vials were stored at either 5° C., 25° C., or 40° C. for either 1 week, 2 weeks, or 4 weeks. At each timepoint, (e.g., after 1 week, 2 weeks, or 4 weeks) the lipid solution was analyzed via LC-MS to determine the extent of hydrolysis and/or oxidation present.

[1] = diluted in 1X PBS pH 7.4, 5, 25, 40° C., 1, 2, 4 weeks
[2] = histidine buffer (10 mM, pH 6.0) vs PBS, 5, 25, 40° C., 1-4 weeks

## CCCCCCCC/C=C\CCCCCCCC(=O)OCC(C[N+](C)(C)C)OC(=O)CCCCCCC/C=C\CCCCCCCC (stereo not drawn) [DOTAP, 1,2-dioleoyl-3-trimethylammonium-propane]
[1]
  % lipid intact: decreased with increasing storage time
Diluted in 1X PBS pH 7.4
  primary degradation pathway: hydrolysis
  stability in BT5933 glass vials relative to COP vials: better stability
[2]
  % hydrolysis: decreased the % hydrolysis of DOTAP relative to storage in PBS
  % lipid intact: stabilized the % DOTAP intact at all storage conditions tested

## CCCCC/C=C\C/C=C\CCCCCCCCC(CCCCCCCC/C=C\C/C=C\CCCCC)OC(=O)CCCN(C)C [MC3, 4-(dimethylamino)-butanoic acid, (10Z,13Z)-1-(9Z,12Z)-9,12-octadecadien-1-yl-10,13-nonadecadien-1-yl ester]
[1]
  % lipid intact: lower than the % DOTAP for the same time points
Diluted in 1X PBS pH 7.4
  primary degradation pathway: oxidation
  stability in BT5933 glass vials relative to COP vials: improved stability relative to COP vials
[2]
  % hydrolysis: significantly reduced lipid hydrolysis of MC3
  % lipid intact: increasing the % MC3 intact at all storage conditions tested
  degree of oxidation: reduced the degree of oxidation
Storage in Valor glass vials vs other vials
  oxidation rate: lower oxidation rate
